Test results published in PubChem BioAssay AID248 (DTP/NCI, 2004).
Values joined by “and” are separate entries in the source; they are usually repeats but may differ in a detail not shown here. Equal entries are not always repeated. Inconclusive results and toxic doses are left out. No stated cut-off is given here; in the data, active means T/C of 150% or more; inactive means T/C below 125%. Peptide text beside a SMILES is read from it.

System: L1210 leukemia ip in BDF1 mice, survival T/C
Assay: NCI In Vivo Anticancer Drug Screen. Data for tumor model L1210 Leukemia (intraperitoneal) in B6D2F1 (BDF1) mice
Conditions: higher = longer survival
How it was run: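 Transplanted-tumor mice were given test agent; controls received vehicle only. Survival readings from the two groups were divided (treated over control).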

[1] = endpoint: mean survival time, dose: 100.0 mg/kg/injection, schedule: Q01DX009 (ip), vehicle: saline with Tween-80
[2] = endpoint: mean survival time, dose: 200.0 mg/kg/injection, schedule: Q01DX009 (ip), vehicle: saline with Tween-80
[3] = endpoint: mean survival time, dose: 400.0 mg/kg/injection, schedule: Q01DX009 (ip), vehicle: saline with Tween-80
[4] = endpoint: mean survival time, dose: 100.0 mg/kg/injection, schedule: Q04DX003 (ip), vehicle: saline with Tween-80
[5] = endpoint: mean survival time, dose: 200.0 mg/kg/injection, schedule: Q04DX003 (ip), vehicle: saline with Tween-80
[6] = endpoint: mean survival time, dose: 400.0 mg/kg/injection, schedule: Q04DX003 (ip), vehicle: saline with Tween-80
[7] = endpoint: mean survival time, dose: 100.0 mg/kg/injection, schedule: Q01DX009 (ip), vehicle: Klucel (hydroxypropylcellulose) (HPC)
[8] = endpoint: mean survival time, dose: 200.0 mg/kg/injection, schedule: Q01DX009 (ip), vehicle: Klucel (hydroxypropylcellulose) (HPC)
[9] = endpoint: mean survival time, dose: 400.0 mg/kg/injection, schedule: Q01DX009 (ip), vehicle: Klucel (hydroxypropylcellulose) (HPC)
[10] = endpoint: mean survival time, dose: 50.0 mg/kg/injection, schedule: Q01DX001 (ip), vehicle: saline
[11] = endpoint: mean survival time, dose: 100.0 mg/kg/injection, schedule: Q01DX001 (ip), vehicle: saline
[12] = endpoint: mean survival time, dose: 200.0 mg/kg/injection, schedule: Q01DX001 (ip), vehicle: saline
[13] = endpoint: mean survival time, dose: 100.0 mg/kg/injection, schedule: Q04DX002 (ip), vehicle: saline with Tween-80
[14] = endpoint: mean survival time, dose: 200.0 mg/kg/injection, schedule: Q04DX002 (ip), vehicle: saline with Tween-80

Measured: T/C

Nc1ccc2[nH]c(=S)sc2c1
inactive: [1] 104 % of control | [2] 104 % of control | [3] 108 % of control

O=C1C[C@H]2[C@H](CO)[C@@H](OC(=O)c3ccc(-c4ccccc4)cc3)C[C@H]2O1
inactive: endpoint: mean survival time, dose: 12.5 mg/kg/injection, schedule: Q01DX009 (ip), vehicle: alcohol 103 % of control | endpoint: mean survival time, dose: 25.0 mg/kg/injection, schedule: Q01DX009 (ip), vehicle: alcohol 101 % of control | endpoint: mean survival time, dose: 50.0 mg/kg/injection, schedule: Q01DX009 (ip), vehicle: alcohol 98 % of control

Nc1ccc(-c2cc3ccccc3oc2=O)cc1
inactive: endpoint: mean survival time, dose: 6.25 mg/kg/injection, schedule: Q04DX002 (ip), vehicle: Klucel (hydroxypropylcellulose) (HPC) 100 % of control and 119 % of control | endpoint: mean survival time, dose: 12.5 mg/kg/injection, schedule: Q04DX002 (ip), vehicle: Klucel (hydroxypropylcellulose) (HPC) 92 % of control and 111 % of control | endpoint: mean survival time, dose: 25.0 mg/kg/injection, schedule: Q04DX002 (ip), vehicle: Klucel (hydroxypropylcellulose) (HPC) 92 % of control and 102 % of control

CCNC(=O)NC(CSCSC)C(=O)OC (stereo not drawn)
inactive: [1] 98 % of control | [4] 104 % of control | [2] 105 % of control | [5] 105 % of control | [3] 96 % of control | [6] 102 % of control

O=[N+]([O-])c1ccc(S(=O)(=O)CCCl)cc1
inactive: endpoint: mean survival time, dose: 50.0 mg/kg/injection, schedule: Q01DX009 (ip), vehicle: Klucel (hydroxypropylcellulose) (HPC) 100 % of control | [7] 91 % of control

CCCCCCNC(=O)Nc1ccccc1Cl
inactive: [7] 97 % of control | [8] 100 % of control | [9] 105 % of control

CC(C)N(C(=O)Nc1cccc(F)c1)c1ccccc1
inactive: endpoint: mean survival time, dose: 100.0 mg/kg/injection, schedule: Q01DX009 (ip), vehicle: gum acacia 96 % of control | endpoint: mean survival time, dose: 200.0 mg/kg/injection, schedule: Q01DX009 (ip), vehicle: gum acacia 96 % of control | endpoint: mean survival time, dose: 400.0 mg/kg/injection, schedule: Q01DX009 (ip), vehicle: gum acacia 90 % of control

Cc1ccc(S(=O)(=O)N(CCCc2c(C)nc(N)nc2Cl)c2ccccc2)cc1
inactive: endpoint: mean survival time, dose: 100.0 mg/kg/injection, schedule: Q01DX001 (ip), vehicle: Klucel (hydroxypropylcellulose) (HPC) 86 % of control | endpoint: mean survival time, dose: 400.0 mg/kg/injection, schedule: Q01DX001 (ip), vehicle: Klucel (hydroxypropylcellulose) (HPC) 93 % of control

CC(=O)NNC(=O)c1cccnc1
inactive: endpoint: mean survival time, dose: 100.0 mg/kg/injection, schedule: Q01DX001 (ip), vehicle: water 95 % of control | endpoint: mean survival time, dose: 100.0 mg/kg/injection, schedule: Q01DX009 (ip), vehicle: water 95 % of control | endpoint: mean survival time, dose: 200.0 mg/kg/injection, schedule: Q01DX001 (ip), vehicle: water 104 % of control | endpoint: mean survival time, dose: 200.0 mg/kg/injection, schedule: Q01DX009 (ip), vehicle: water 101 % of control | endpoint: mean survival time, dose: 400.0 mg/kg/injection, schedule: Q01DX001 (ip), vehicle: water 101 % of control | endpoint: mean survival time, dose: 400.0 mg/kg/injection, schedule: Q01DX009 (ip), vehicle: water 116 % of control | endpoint: mean survival time, dose: 800.0 mg/kg/injection, schedule: Q01DX009 (ip), vehicle: water 116 % of control

CC(C)(CC(=O)O)SCCSC(C)(C)CC(=O)O
inactive: [7] 97 % of control | [8] 95 % of control | [9] 92 % of control

O=C(c1ccccc1)c1c2ccccc2c(-c2ccccc2)c2ccccc12
inactive: [7] 101 % of control | endpoint: mean survival time, dose: 100.0 mg/kg/injection, schedule: Q04DX003 (ip), vehicle: Klucel (hydroxypropylcellulose) (HPC) 92 % of control | [8] 103 % of control | endpoint: mean survival time, dose: 200.0 mg/kg/injection, schedule: Q04DX003 (ip), vehicle: Klucel (hydroxypropylcellulose) (HPC) 89 % of control | [9] 92 % of control | endpoint: mean survival time, dose: 400.0 mg/kg/injection, schedule: Q04DX003 (ip), vehicle: Klucel (hydroxypropylcellulose) (HPC) 90 % of control

CC(NC(=O)C(CCC(=O)O)NC(=O)C(N)C(C)C)C(=O)NCC(=O)NC(C(=O)NC(CCC(=O)O)C(=O)NC(C)C(=O)NCC(=O)NCC(=O)O)C(C)C (stereo not drawn) (H-VEAGVEAGG-OH; configuration not given here)
inactive: [10] 93 % of control | [11] 95 % of control | [12] 91 % of control

CC(=O)O[C@]1(C(C)=O)CC[C@H]2[C@@H]3C[C@H](C)C4=CC(=O)C=C[C@]4(C)[C@@]3(F)[C@@H](O)C[C@@]21C
inactive: endpoint: mean survival time, dose: 12.5 mg/kg/injection, schedule: Q01DX010 (sc), vehicle: steriod suspending solution 96 % of control and 98 % of control | endpoint: mean survival time, dose: 25.0 mg/kg/injection, schedule: Q01DX009 (sc), vehicle: steriod suspending solution 103 % of control and 104 % of control and 111 % of control | endpoint: mean survival time, dose: 25.0 mg/kg/injection, schedule: Q01DX010 (sc), vehicle: steriod suspending solution 98 % of control and 101 % of control | endpoint: mean survival time, dose: 50.0 mg/kg/injection, schedule: Q01DX009 (sc), vehicle: steriod suspending solution 93 % of control and 95 % of control and 111 % of control | endpoint: mean survival time, dose: 50.0 mg/kg/injection, schedule: Q01DX010 (sc), vehicle: steriod suspending solution 95 % of control and 107 % of control | endpoint: mean survival time, dose: 100.0 mg/kg/injection, schedule: Q01DX009 (sc), vehicle: steriod suspending solution 98 % of control (2×) and 111 % of control | endpoint: mean survival time, dose: 100.0 mg/kg/injection, schedule: Q01DX010 (sc), vehicle: steriod suspending solution 98 % of control and 107 % of control | endpoint: mean survival time, dose: 200.0 mg/kg/injection, schedule: Q01DX009 (sc), vehicle: steriod suspending solution 95 % of control (2×) and 111 % of control | endpoint: median survival time, dose: 25.0 mg/kg/injection, schedule: Q01DX009 (sc), vehicle: steriod suspending solution 106 % of control | endpoint: median survival time, dose: 50.0 mg/kg/injection, schedule: Q01DX009 (sc), vehicle: steriod suspending solution 100 % of control | endpoint: median survival time, dose: 100.0 mg/kg/injection, schedule: Q01DX009 (sc), vehicle: steriod suspending solution 100 % of control | endpoint: median survival time, dose: 200.0 mg/kg/injection, schedule: Q01DX009 (sc), vehicle: steriod suspending solution 100 % of control

CC1COCCN1 (stereo not drawn)
inactive: [10] 91 % of control | [11] 97 % of control | [12] 100 % of control

CCCCCCCC/C=C\CCCCCCCC(=O)NCCCOCCOCC
inactive: endpoint: mean survival time, dose: 75.0 mg/kg/injection, schedule: Q04DX003 (ip), vehicle: saline 94 % of control | endpoint: mean survival time, dose: 150.0 mg/kg/injection, schedule: Q04DX003 (ip), vehicle: saline 96 % of control | endpoint: mean survival time, dose: 300.0 mg/kg/injection, schedule: Q04DX003 (ip), vehicle: saline 96 % of control

O=C(Nc1ccc2ccccc2c1)c1ccc(Cl)cc1
inactive: [1] 104 % of control and 92 % of control | [13] 94 % of control and 97 % of control | [4] 97 % of control | [2] 97 % of control and 98 % of control | [14] 100 % of control and 101 % of control | [5] 101 % of control | [3] 95 % of control and 111 % of control | endpoint: mean survival time, dose: 400.0 mg/kg/injection, schedule: Q04DX002 (ip), vehicle: saline with Tween-80 89 % of control and 90 % of control | [6] 97 % of control

CC(=O)C(C=NCCN=CC(C(C)=O)C(C)=O)C(C)=O.[Ni]
inactive: [13] 98 % of control | [14] 98 % of control

COC(=O)c1ccc(NCC(=N)N)cc1
inactive: [11] 95 % of control | [12] 107 % of control

CC1CN1C1=C(Cl)C(=O)C(N2CC2C)=C(Cl)C1=O (stereo not drawn)
inactive: endpoint: mean survival time, dose: 0.78 mg/kg/injection, schedule: Q01DX009 (ip), vehicle: Klucel (hydroxypropylcellulose) (HPC) 104 % of control | endpoint: mean survival time, dose: 1.56 mg/kg/injection, schedule: Q01DX009 (ip), vehicle: Klucel (hydroxypropylcellulose) (HPC) 105 % of control | endpoint: mean survival time, dose: 3.12 mg/kg/injection, schedule: Q01DX009 (ip), vehicle: Klucel (hydroxypropylcellulose) (HPC) 102 % of control | endpoint: mean survival time, dose: 6.25 mg/kg/injection, schedule: Q01DX009 (ip), vehicle: Klucel (hydroxypropylcellulose) (HPC) 96 % of control | endpoint: mean survival time, dose: 12.5 mg/kg/injection, schedule: Q01DX009 (ip), vehicle: Klucel (hydroxypropylcellulose) (HPC) 107 % of control

COc1ccccc1C(=S)N1CCCCC1
inactive: endpoint: mean survival time, dose: 100.0 mg/kg/injection, schedule: Q04DX003 (ip), vehicle: saline 97 % of control | endpoint: mean survival time, dose: 200.0 mg/kg/injection, schedule: Q04DX003 (ip), vehicle: saline 89 % of control | endpoint: mean survival time, dose: 400.0 mg/kg/injection, schedule: Q04DX003 (ip), vehicle: saline 92 % of control

O=C1OC(/C=C/c2ccccc2)=NC/1=C\C=C\c1ccccc1
inactive: endpoint: mean survival time, dose: 100.0 mg/kg/injection, schedule: Q04DX002 (ip), vehicle: Klucel (hydroxypropylcellulose) (HPC) 107 % of control | endpoint: mean survival time, dose: 200.0 mg/kg/injection, schedule: Q04DX002 (ip), vehicle: Klucel (hydroxypropylcellulose) (HPC) 104 % of control | endpoint: mean survival time, dose: 400.0 mg/kg/injection, schedule: Q04DX002 (ip), vehicle: Klucel (hydroxypropylcellulose) (HPC) 104 % of control

CCN(CC)C1=C(Cl)C(=O)C(N(CC)CC)=C(Cl)C1=O
inactive: endpoint: mean survival time, dose: 25.0 mg/kg/injection, schedule: Q04DX002 (ip), vehicle: gum acacia 95 % of control | endpoint: mean survival time, dose: 50.0 mg/kg/injection, schedule: Q04DX002 (ip), vehicle: gum acacia 95 % of control
